The results in this text go back to patent publication US10851067B2, “Kv7 channel activators compositions and methods of use” (Knopp Biosciences LLC, priority 2018, dated 2020).

The structures appear in SMILES notation.

In this test the target is Kv7.2/7.3 (Homo sapiens, UniProt O43525+O43526). Description: Kv7.2/7.3 Activation Assay, QPatch single concentration screen. The note with it: Kv7.2/Kv7.3 co-expressing HEK cells, compound concentration 3 μM, steady-state current at end of 2 s pulse to −30 mV. Set-up: host or cells: HEK cells, tetracycline-inducible expression; key: 1.2-2.9 (+); 3-3.9 (++); >4 (+++) fold increase over baseline; O represents open channel at holding potential. Format: cell-based. Put shortly:
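Tetracycline-induced HEK cells expressing human Kv7.2/7.3, recorded 24 h post-induction by automated planar patch clamp. From −80 mV, 2 s steps to −30 mV then 100 ms to −120 mV; compound tested at 3 μM (0.1% DMSO). Steady-state current at end of −30 mV step gives fold increase over baseline.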
`CC(C)(CC(=O)Nc1nc2c(F)cc(C3(O)CCC3)cc2n1C1CCC1)C(F)(F)F` [Example 352, N-(1-cyclobutyl-4-fluoro-6-(1-hydroxycyclobutyl)-1H-benzo[d]imidazol-2-yl)-4,4,4-trifluoro-3,3-dimethylbutanamide]: the “Kv7.2/7.3 Activity: increase over baseline in current” value was “++ (3-3.9 (++))”. The same measure for `CC1(CC(=O)Nc2nc3ccc(C(C)(C)O)cc3n2C2(C)CCC2)CC1` [Example 391, N-(6-(2-hydroxypropan-2-yl)-1-(1-methylcyclobutyl)-1H-benzo[d]imidazol-2-yl)-2-(1-methylcyclopropyl)acetamide]: “+ (1.2-2.9 (+))”; for `CC1(n2c(NC(=O)CC(C)(C)C(F)(F)F)nc3ccc(C#N)cc32)CCC1` [Example 361, N-(6-cyano-1-(1-methylcyclobutyl)-1H-benzo[d]imidazol-2-yl)-4,4,4-trifluoro-3,3-dimethylbutanamide]: “++ (3-3.9 (++))”; for `CC(C)(O)c1ccc2nc(NC(=O)CC(C)(C)C3CC3)n(CC(F)(F)F)c2c1` [Example 406, 3-cyclopropyl-N-(6-(2-hydroxypropan-2-yl)-1-(2,2,2-trifluoroethyl)-1H-benzo[d]imidazol-2-yl)-3-methylbutanamide]: “+++ (>4 (+++) fold increase over baseline)”.

For the compound `CC(C)(C)CC(=O)Nc1nc2ccc(OCC(F)(F)F)c(F)c2n1C1CCC1` [Example 334, N-(1-cyclobutyl-7-fluoro-6-(2,2,2-trifluoroethoxy)-1H-benzo[d]imidazol-2-yl)-3,3-dimethylbutanamide], the “Kv7.2/7.3 Activity: increase over baseline in current” value is “++ (3-3.9 (++))”. The same measure for `CC(C)(C)CC(=O)Nc1nc2cc(F)c(C#N)cc2n1C1(C)CCC1` [Example 437, N-(6-cyano-5-fluoro-1-(1-methylcyclobutyl)-1H-benzo[d]imidazol-2-yl)-3,3-dimethylbutanamide]: “++ (3-3.9 (++))”. The same measure for `CC1(n2c(NC(=O)CC(O)(CF)CF)nc3ccc(OC(F)F)c(F)c32)CCC1` [Example 423, N-(6-(difluoromethoxy)-7-fluoro-1-(1-methylcyclobutyl)-1H-benzo[d]imidazol-2-yl)-4-fluoro-3-(fluoromethyl)-3-hydroxybutanamide]: “+ (1.2-2.9 (+))”; for `CC(C)(O)CC(=O)Nc1nc2cccc(OC(F)(F)F)c2n1C1CCC1` [Example 380, N-(1-cyclobutyl-7-(trifluoromethoxy)-1H-benzo[d]imidazol-2-yl)-3-hydroxy-3-methylbutanamide]: “+ (1.2-2.9 (+))”; for `CC(C)(C)CC(=O)Nc1nc2c(F)cc(Br)cc2n1C1CCC1` [Example 343, N-(6-bromo-1-cyclobutyl-4-fluoro-1H-benzo[d]imidazol-2-yl)-3,3-dimethylbutanamide]: “+++ (>4 (+++) fold increase over baseline)”. The same measure for `CC(O)(CC(=O)Nc1nc2ccc(C#N)cc2n1C1(C)CCC1)c1c(F)cccc1F` (single isomer, unassigned) [Example 384, N-(6-cyano-1-(1-methylcyclobutyl)-1H-benzo[d]imidazol-2-yl)-3-(2,6-difluorophenyl)-3-hydroxybutanamide]: “++ (3-3.9 (++))”; for `CC(O)(CC(=O)Nc1nc2c(F)cc(C#N)cc2n1C(C)(C)C)c1cccc(F)c1` (single isomer, unassigned) [Example 339, N-(1-(tert-butyl)-6-cyano-4-fluoro-1H-benzo[d]imidazol-2-yl)-3-(3-fluorophenyl)-3-hydroxybutanamide]: “O”; for `CC(C)(O)c1cc(F)c2nc(NC(=O)CC3CC(F)(F)C3(F)F)n(C3CCC3)c2c1` (stereo not drawn) [Example 405, N-(1-cyclobutyl-4-fluoro-6-(2-hydroxypropan-2-yl)-1H-benzo[d]imidazol-2-yl)-2-(2,2,3,3-tetrafluorocyclobutyl)acetamide]: “++ (3-3.9 (++))”.
